Source: patent publication US6506901B2, “Substituted 2-(S)-hydroxy-3-(piperidin-4-yl-methylamino)-propyl ethers and substituted 2-aryl-2-(R)-hydroxy-1-(piperidin-4-yl-methyl)-ethylamine β-3 adrenergic receptor agonists” (Wyeth, priority 2000, dated 2003)

Molecular target: T1, human β3 receptors (Homo sapiens, UniProt P13945)
T1 construct: Full length β3 AR clones (402 amino acids) containing the last 6 amino acids of hβ3—AR; expressed in transfected cells; host or cells: CHO cells
Assay: cAMP response (SPA) in CHO cells expressing cloned human β3 adrenergic receptor
Type: cell-based
Conditions: for EC50: CHO cells expressing human β3 receptor, cAMP, 30 min incubation, 10^−9 M to 10^−5 M; for IA(β3): maximal response compared to the maximal response of isoproterenol at 10^−5 M
Description: Binding to the receptors was measured in Chinese Hamster ovary (CHO) cells that were transfected with adrenergic receptors.
Cloning of Human β3-AR Genomic DNA: cDNA was constructed by ligating four polymerase chain reaction (PCR) products using the following primers: an ATG-NarI fragment, sense primer 5′-[…]3′ and anti-sense primer 5′ […]3′; a NarI-AccI fragment, 5′ […]3′ as sense and 5′ […]3′ as anti-sense primer; an AccIi-StyI fragment, sense primer 5′ […]3′ and anti-sense primer 5′ […]3′ and a StyI-TAG fragment, with sense primer 5′ […]3′ and anti-sense primer 5′ […]3′. The corresponding primer sequences are described in Mantzoros, C. […] The four fragments are ligated into a pUC 18 plasmid (Gibco-BRL) and sequenced.
CHO cells were grown in 24-well tissue culture plates in Dulbecco's Modified Eagle Media with 10% fetal bovine serum, MEM non-essential amino acids, Penicillin-Streptompycin and Geneticin. […] Isoproterenol (10^−5 M) was used as an internal standard for comparison of activity. Cells were incubated at 37° C. on a rocker for 30 min with the β3 cells and 15 min for β1 and β2 cells. Incubation was stopped with the addition of 0.2N HCl and neutralized with 2.5N NaOH. The plates, containing the cells and neutralized media, were stored at −20 degrees celsius until ready to test for cAMP using the SPA test kit (Amersham).
Data Analysis and Results: Data collected from the SPA test procedure were analyzed as per cent of the maximal isoproterenol response at 10^−5 M. Activity curves were plotted using the SAS statistical and graphics software.

T1 sequence (P13945 whole entry): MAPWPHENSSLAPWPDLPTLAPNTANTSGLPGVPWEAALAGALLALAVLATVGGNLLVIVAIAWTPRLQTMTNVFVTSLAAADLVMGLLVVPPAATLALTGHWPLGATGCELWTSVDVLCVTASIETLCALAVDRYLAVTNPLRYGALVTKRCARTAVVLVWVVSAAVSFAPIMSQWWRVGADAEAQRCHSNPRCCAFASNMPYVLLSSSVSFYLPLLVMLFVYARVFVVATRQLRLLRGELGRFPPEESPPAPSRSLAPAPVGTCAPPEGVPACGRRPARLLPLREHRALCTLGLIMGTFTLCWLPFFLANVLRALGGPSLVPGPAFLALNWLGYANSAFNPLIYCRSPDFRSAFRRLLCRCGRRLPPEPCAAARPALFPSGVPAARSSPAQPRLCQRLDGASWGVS

Row | EC50 | IA(β3) | SMILES
1 | 34 nM | 0.94 | CS(=O)(=O)Nc1cc(C(O)CNCC2CCN(S(=O)(=O)c3ccc(-c4noc(CCC(=O)O)n4)cc3)CC2)ccc1O (stereo in doubt) [Example 105, 3-(3-{4-[(4-{[((2S)-2-Hydroxy-2-{4-hydroxy-3-[(methylsulfonyl)amino]-phenyl}ethyl)amino]methyl}-1-piperidinyl)sulfonyl]phenyl}-1,2,4-oxadiazol-5-yl)propanoic Acid]
2 | 31 nM | 1.2 | CS(=O)(=O)Nc1cc([C@@H](O)CNCC2CCN(c3ccc(C(=O)NC(Cc4ccccc4)C(=O)O)cc3)CC2)ccc1O (stereo in doubt) [Example 109, (2S)-2-{[4-(4-{[((2R)-2-Hydroxy-2-{4-hydroxy-3-[(methylsulfonyl)amino]phenyl}-ethyl)amino]methyl}piperidin-1-yl)benzoyl]amino}-3-phenylpropanoic Acid]
3 | 66 nM | 1 | CS(=O)(=O)Nc1cc([C@@H](O)CNCC2CCN(c3ccc(C(=O)N4CCCC4C(=O)O)cc3)CC2)ccc1O (stereo in doubt) [Example 115, (2S)-1-[4-(4-{[((2R)-2-Hydroxy-2-{4-hydroxy-3-[(methylsulfonyl)amino]phenyl}-ethyl)amino]methyl}piperidin-1-yl)benzoyl]pyrrolidine-2-carboxylic Acid]
4 | 210 nM | 0.84 | O=c1[nH]c2ccc(OCC(O)CNCC3CCN(S(=O)(=O)c4cccc(Br)c4)CC3)cc2[nH]1 (stereo in doubt) [Example 178]
5 | 596 nM | 0.62 | O=C1c2ccccc2-c2c(OC[C@@H](O)CNCC3CCN(CCC(F)(F)F)CC3)cccc21 [Example 13, 4-(2-Hydroxy-3-{[1-(3,3,3-trifluoro-propyl)-piperidin-4-ylmethyl]-amino}-propoxy)-fluoren-9-one]
6 | 219 nM | 0.75 | OC1c2ccccc2-c2c(OC[C@@H](O)CNCC3CCN(CCC(F)(F)F)CC3)cccc21 (stereo partly drawn) [Example 14, 4-((2S)-2-Hydroxy-3-{[1-(3,3,3-trifluoro-propyl)-piperidin-4-ylmethyl]-amino}-propoxy)-9H-fluoren-9-ol]
7 | 12500 nM | 0.52 | Oc1ccc2[nH]c3ccccc3c2c1OC[C@@H](O)CNCC1CCN(CCC(F)(F)F)CC1 [Example 15, 4-((2S)-2-Hydroxy-3-{[1-(3,3,3-trifluoro-propyl)-piperidin-4-ylmethyl]-amino}-propoxy)-9H-carbazol-3-ol]
8 | 1240 nM | 0.82 | O[C@@H](CNCC1CCN(CCC(F)(F)F)CC1)COc1c(Cl)ccc2[nH]c3ccccc3c12 [Example 19, (2S)-1-(3-Chloro-9H-carbazol-4-yloxy)-3-{[1-(3,3,3-trifluoro-propyl)-piperidin-4-ylmethyl]-amino}-propan-2-ol]
9 | 1210 nM | 0.53 | O=c1[nH]c2cccc(OC[C@@H](O)CNCC3CCN(CCC(F)(F)F)CC3)c2[nH]1 [Example 22, 4-((2S)-2-Hydroxy-3-{[1-(3,3,3-trifluoro-propyl)-piperidin-4-ylmethyl]-amino}-propoxy)-1,3-dihydro-benzoimidazol-2-one]
10 | 1090 nM | 0.66 | Cc1cc2c(OC[C@@H](O)CNCC3CCN(CCC(F)(F)F)CC3)cccc2[nH]1 [Example 23, (2S)-1-(2-Methyl-1H-indol-4-yloxy)-3-{[1-(3,3,3-trifluoro-propyl)-piperidin-4-ylmethyl]-amino}-propan-2-ol]
11 | 943 nM | 0.98 | O[C@@H](CNCC1CCN(CCCC(F)(F)F)CC1)COc1cccc2[nH]c3ccccc3c12 [Example 24, (2S)-1-(9H-Carbazol-4-yloxy)-3-{[1-(4,4,4-trifluoro-butyl)-piperidin-4-ylmethyl]-amino}-propan-2-ol]
12 | 1030 nM | 0.51 | CCCCCCCCN1CCC(CNC[C@H](O)COc2cccc3[nH]c4ccccc4c23)CC1 [Example 27]
13 | 123 nM | 0.8 | CC(C)S(=O)(=O)N1CCC(CNC[C@H](O)COc2cccc3[nH]c4ccccc4c23)CC1 [Example 32, (2S)-1-(9H-Carbazol-4-yloxy)-3-{[1-(ropane-2-sulfonyl)-piperidin-4-ylmethyl]-amino}-propan-2-ol]
14 | 141 nM | 0.68 | COc1ccc(S(=O)(=O)N2CCC(CNC[C@H](O)COc3cccc4[nH]c5ccccc5c34)CC2)cc1 [Example 33, (2S)-1-(9H-Carbazol-4-yloxy)-3-{[1-(4-methoxy-benzenesulfonyl)-piperidin-4-ylmethyl]-amino}-propan-2-ol]
15 | 7000 nM | 0.36 | COc1ccc(S(=O)(=O)N2CCC(CNC[C@H](O)COc3c(Br)ccc4[nH]c5ccccc5c34)CC2)cc1 [Example 34, (2S)-1-(3-Bromo-9H-carbazol-4-yloxy)-3-{[1-(4-methoxy-benzenesulfonyl)-piperidin-4-ylmethyl]-amino}-propan-2-ol]
16 | 376 nM | 1.04 | COc1ccc(S(=O)(=O)N2CCC(CNC[C@H](O)COc3ccc(O)cc3)CC2)cc1 [Example 37, 4-((2S)-2-Hydroxy-3-{[1-(4-methoxy-benzenesulfonyl)-piperidin-4-ylmethyl]-amino}-propoxy)-phenol]
17 | 365 nM | 0.36 | COc1ccc(S(=O)(=O)N2CCC(CNC[C@H](O)COc3cccc4c3-c3ccccc3C4=O)CC2)cc1 [Example 38, 4-((2S)-2-Hydroxy-3-{[1-(4-methoxy-benzenesulfonyl)-piperidin-4-ylmethyl]-amino}-propoxy)-fluoren-9-one]
18 | 30 nM | 0.81 | COc1ccc(S(=O)(=O)N2CCC(CNC[C@H](O)COc3cccc4[nH]c(=O)[nH]c34)CC2)cc1 [Example 39, 4-((2S)-2-Hydroxy-3-{[1-(4-methoxy-benzenesulfonyl)-piperidin-4-ylmethyl]-amino}-propoxy)-1,3-dihydro-benzoimidazol-2-one]
19 | 490 nM | 0.23 | COc1ccc(S(=O)(=O)N2CCC(CNC[C@H](O)COc3cccc4[nH]c(C)cc34)CC2)cc1 [Example 40, 4-((2S)-2-Hydroxy-3-{[1-(4-methoxy-benzenesulfonyl)-piperidin-4-ylmethyl]-amino}-propoxy)-2-methyl-1H-indole]
20 | 95 nM | 0.65 | COc1ccc(S(=O)(=O)N2CCC(CNC[C@H](O)COc3cccc4c3CC(=O)N4)CC2)cc1 [Example 41, 4-((2S)-3-{[1-(4-Methoxy-benzenesulfonyl)-piperidin-4-ylmethyl]-amino}-2-hydroxy-propoxy)-1,3-dihydro-indol-2-one]
21 | 150 nM | 0.69 | COc1ccc(S(=O)(=O)N2CCC(CNC[C@H](O)COc3cccc4[nH]c(=O)[nH]c34)CC2)cc1OC [Example 42, 4-((2S)-2-Hydroxy-3-{[1-(3,4-dimethoxy-benzenesulfonyl)-piperidin-4-ylmethyl]-amino}-propoxy)-1,3-dihydro-benzoimidazol-2-one]
22 | 880 nM | 0.68 | COc1ccc(S(=O)(=O)N2CCC(CNC[C@H](O)COc3ccc(O)cc3)CC2)cc1OC [Example 43, 4-((2S)-2-Hydroxy-3-{[1-(3,4-dimethoxy-benzenesulfonyl)-piperidin-4-ylmethyl]-amino}-propoxy)-phenol]
